In the supplement of paper PMC11061612:

Tests used:
Experiment in all cases: combination Emax (second highest fraction inhibited in the dose matrix, 72 h); higher = more inhibition; extreme values may be limits of the assay
[1] = test system: VAL (B-Cell Non-Hodgkin's Lymphoma)
Summary of the method: (§1)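 Cell lines in DMEM/F12 or RPMI with 10% FBS were plated in 1536-well plates, held 24 hours at 37°C, 5% CO2, then given two-drug dose matrices for 72 hours (DMSO typically 0.2%). Viability was read by CellTiter-Glo 2.0 luminescence and scaled as inhibition from 0 (vehicle wells) to 1 (blank wells). Combination Emax is the second-highest inhibition in the matrix; Bliss excess is observed combination effect minus expected EA + EB − EA·EB, EA and EB being single-agent effects.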

[2] = test system: OPM-2 (Plasma Cell Myeloma)
Summary of the method: as §1

[3] = test system: MFE-280 (Endometrial Carcinoma)
Summary of the method: as §1

[4] = test system: NCI-H2342 (Lung Adenocarcinoma)
Summary of the method: as §1

[5] = test system: TE-8 (Esophageal Squamous Cell Carcinoma)
Summary of the method: as §1

[6] = test system: CAL-62 (Thyroid Gland Carcinoma)
Summary of the method: as §1

LN-229 (Glioblastoma) = test system: LN-229 (Glioblastoma)
Summary of the method: as §1

[7] = test system: REH (B-Lymphoblastic Leukemia)
Summary of the method: as §1

[8] = test system: PANC-03-27 (Pancreatic Carcinoma)
Summary of the method: as §1

[9] = test system: HEC-1 (Endometrial Carcinoma)
Summary of the method: as §1

[10] = test system: PC-3_[JPC-3] (Lung Adenocarcinoma)
Summary of the method: as §1

[11] = test system: SU-DHL-10 (B-Cell Non-Hodgkin's Lymphoma)
Summary of the method: as §1

[12] = test system: KE-37 (T-Lymphoblastic Leukemia)
Summary of the method: as §1

SF268 (Low Grade Glioma) = test system: SF268 (Low Grade Glioma)
Summary of the method: as §1

[13] = test system: FADU (Head and Neck Carcinoma)
Summary of the method: as §1

[14] = test system: NCI-H446 (Small Cell Lung Carcinoma)
Summary of the method: as §1

SF539 (Glioblastoma) = test system: SF539 (Glioblastoma)
Summary of the method: as §1

[15] = test system: RCM-1 (Colorectal Carcinoma)
Summary of the method: as §1

[16] = test system: L-1236 (Hodgkin's Lymphoma)
Summary of the method: as §1

Row | SMILES | combination Emax [1] | combination Emax [2] | combination Emax [3] | combination Emax [4] | combination Emax [5] | combination Emax [6] | combination Emax (LN-229 (Glioblastoma)) | combination Emax [7] | combination Emax [8] | combination Emax [9] | combination Emax [10] | combination Emax [11] | combination Emax [12] | combination Emax (SF268 (Low Grade Glioma)) | combination Emax [13] | combination Emax [14] | combination Emax (SF539 (Glioblastoma)) | combination Emax [15] | combination Emax [16]
1 | CN(C)CCCOc1ccc(-c2ccc3ncc4c(c3c2)n(C2CCOCC2)c(=O)n4C)cn1 [AZD0156] + C=CCn1c(=O)c2cnc(Nc3ccc(N4CCN(C)CC4)cc3)nc2n1-c1cccc(C(C)(C)O)n1 [AZD1775] (first compound max 1 µM, partner max 1 µM) | 0.846 | 0.805 | 0.55 | 0.162 | 0.783 | 0.709 | 0.314 | 0.757 | 0.91 | 0.0682 | 0.393 | 0.936 | 1 | 0.225 | 0.617 | 0.801 | 1 | 0.518 | 0.755
2 | CN(C)CCCOc1ccc(-c2ccc3ncc4c(c3c2)n(C2CCOCC2)c(=O)n4C)cn1 [AZD0156] + CCN(CCO)CCCOc1ccc2c(Nc3cc(CC(=O)Nc4cccc(F)c4)[nH]n3)ncnc2c1 [AZD2811] (first compound max 1 µM, 7x7, partner max 1 µM) | 0.801 | 0.436 | 0.47 | 0.145 | 0.196 | 0.182 | 0.123 | 0.481 | 0.2 | 0.0528 | 0.101 | 0.835 | 1 | 0.142 | 0.228 | 0.838 | 0.394 | 0.161 | 0.215
3 | CN(C)CCCOc1ccc(-c2ccc3ncc4c(c3c2)n(C2CCOCC2)c(=O)n4C)cn1 [AZD0156] + C[C@@H]1COCCN1C2=NC(=NC(=C2)C3(CC3)[S@](=N)(=O)C)C4=C5C=CNC5=NC=C4 [AZD6738] (first compound max 1 µM, 7x7, partner max 10 µM) | 0.911 | 0.776 | 0.335 | 0.166 | 0.817 | 0.755 | 0.54 | 0.625 | 0.862 | 0.363 | 0.329 | 0.979 | 1 | 0.497 | 0.758 | 0.779 | 0.929 | 0.864 | 0.634
4 | C=CCn1c(=O)c2cnc(Nc3ccc(N4CCN(C)CC4)cc3)nc2n1-c1cccc(C(C)(C)O)n1 [AZD1775] + C[C@@H]1COCCN1C2=NC(=NC(=C2)C3(CC3)[S@](=N)(=O)C)C4=C5C=CNC5=NC=C4 [AZD6738] (first compound max 1 µM, partner max 10 µM) | 0.881 | 0.893 | 0.627 | 0.426 | 0.932 | 0.928 | 0.59 | 0.955 | 0.939 | 0.638 | 0.537 | 1 | 1 | 0.526 | 0.875 | 0.951 | 1 | 0.852 | 0.782
5 | C=CCn1c(=O)c2cnc(Nc3ccc(N4CCN(C)CC4)cc3)nc2n1-c1cccc(C(C)(C)O)n1 [AZD1775] + O=C(c1cc(Cc2n[nH]c(=O)c3ccccc23)ccc1F)N1CCN(C(=O)C2CC2)CC1 [Olaparib] (first compound max 1 µM, partner max 10 µM) | 0.816 | 0.864 | 0.601 | 0.229 | 0.865 | 0.796 | 0.258 | 0.835 | 0.928 | 0.119 | 0.458 | 0.962 | 1 | 0.251 | 0.591 | 0.778 | 1 | 0.518 | 0.746
6 | CCN(CCO)CCCOc1ccc2c(Nc3cc(CC(=O)Nc4cccc(F)c4)[nH]n3)ncnc2c1 [AZD2811] + C=CCn1c(=O)c2cnc(Nc3ccc(N4CCN(C)CC4)cc3)nc2n1-c1cccc(C(C)(C)O)n1 [AZD1775] (first compound max 1 µM, partner max 1 µM) | 0.844 | 0.809 | 0.521 | 0.262 | 0.781 | 0.787 | 0.218 | 0.741 | 0.899 | 0.141 | 0.413 | 1 | 1 | 0.245 | 0.608 | 0.87 | 1 | 0.461 | 0.74
7 | CCc1c2c(nc3ccc(O)cc13)-c1cc3c(c(=O)n1C2)COC(=O)[C@]3(O)CC [SN-38] + O=C(c1cc(Cc2n[nH]c(=O)c3ccccc23)ccc1F)N1CCN(C(=O)C2CC2)CC1 [Olaparib] (first compound max 0.3 µM, 7x7, partner max 10 µM) | 0.994 | 0.734 | 0.785 | 0.236 | 0.575 | 0.911 |  | 1 | 0.839 | 0.761 | 0.825 |  | 1 |  | 0.996 | 0.905 | 0.99 | 0.809 | 0.87
